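Cells were grown in 96-well plates and exposed to each compound for 48 hours at five concentrations; endpoints were interpolated linearly between bracketing concentrations, or set to the highest concentration if not reached. GI50 = concentration required for 50% inhibition of growth. TGI: total growth inhibition.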
Experiments:
Assay in all cases: NCI anticancer screen, dose series, 48 h
SNB-75 CNS = tested on: SNB-75 CNS
SR leukemia = tested on: SR leukemia
OVCAR-5 ovarian = tested on: OVCAR-5 ovarian
SK-MEL-2 melanoma = tested on: SK-MEL-2 melanoma
UACC-62 melanoma = tested on: UACC-62 melanoma
NCI-H226 lung = tested on: NCI-H226 lung
SF-268 CNS = tested on: SF-268 CNS
MDA-MB-231 breast = tested on: MDA-MB-231 breast
UO-31 renal = tested on: UO-31 renal
RPMI-8226 leukemia = tested on: RPMI-8226 leukemia
M14 melanoma = tested on: M14 melanoma
OVCAR-4 ovarian = tested on: OVCAR-4 ovarian
A498 renal = tested on: A498 renal
T-47D breast = tested on: T-47D breast
SF-539 CNS = tested on: SF-539 CNS
A549 NSCLC = tested on: A549 NSCLC
MDA-MB-435 = tested on: MDA-MB-435
K-562 leukemia = tested on: K-562 leukemia
HOP-92 NSCLC = tested on: HOP-92 NSCLC
UACC-257 melanoma = tested on: UACC-257 melanoma
RXF 393 renal = tested on: RXF 393 renal
SW-620 colon = tested on: SW-620 colon
CCRF-CEM leukemia = tested on: CCRF-CEM leukemia
HCT-15 colon = tested on: HCT-15 colon
SNB-19 CNS = tested on: SNB-19 CNS
NCI-H460 lung = tested on: NCI-H460 lung
HL-60(TB) leukemia = tested on: HL-60(TB) leukemia
COLO 205 colon = tested on: COLO 205 colon
U251 CNS = tested on: U251 CNS
NCI/ADR-RES ovarian = tested on: NCI/ADR-RES ovarian
DU-145 prostate = tested on: DU-145 prostate
MCF7 breast = tested on: MCF7 breast
SK-MEL-5 melanoma = tested on: SK-MEL-5 melanoma
ACHN renal = tested on: ACHN renal
786-0 renal = tested on: 786-0 renal
HCC-2998 colon = tested on: HCC-2998 colon
MOLT-4 leukemia = tested on: MOLT-4 leukemia
SK-MEL-28 melanoma = tested on: SK-MEL-28 melanoma
BT-549 breast = tested on: BT-549 breast
LOX IMVI melanoma = tested on: LOX IMVI melanoma
SF-295 CNS = tested on: SF-295 CNS
HCT-116 colon = tested on: HCT-116 colon
MALME-3M melanoma = tested on: MALME-3M melanoma
NCI-H522 lung = tested on: NCI-H522 lung
NCI-H23 lung = tested on: NCI-H23 lung
IGROV1 ovarian = tested on: IGROV1 ovarian
PC-3 prostate = tested on: PC-3 prostate
HS 578T breast = tested on: HS 578T breast
CAKI-1 renal = tested on: CAKI-1 renal
SN12C renal = tested on: SN12C renal
HOP-62 NSCLC = tested on: HOP-62 NSCLC
OVCAR-8 ovarian = tested on: OVCAR-8 ovarian
KM12 colon = tested on: KM12 colon
SK-OV-3 ovarian = tested on: SK-OV-3 ovarian
TK-10 renal = tested on: TK-10 renal
HT29 colon = tested on: HT29 colon
EKVX NSCLC = tested on: EKVX NSCLC

## COc1ccccc1/C=C/C=N/NC1=NC2C(S1)N(C)C(=O)N2c1ccccc1 (centres undefined)
SNB-75 CNS
  GI50: 419 nM
  TGI: > 53100 nM
SR leukemia
  GI50: 343 nM
  TGI: > 46800 nM
OVCAR-5 ovarian
  GI50: 690 nM
  TGI: > 100000 nM
SK-MEL-2 melanoma
  GI50: 449 nM
  TGI: 15300 nM
UACC-62 melanoma
  GI50: 456 nM
  TGI: 37000 nM
NCI-H226 lung
  GI50: 572 nM
  TGI: > 47900 nM
SF-268 CNS
  GI50: 1690 nM
  TGI: 37200 nM
MDA-MB-231 breast
  GI50: 588 nM
  TGI: 20900 nM
UO-31 renal
  GI50: 799 nM
  TGI: > 55600 nM
RPMI-8226 leukemia
  GI50: 396 nM
  TGI: 11200 nM
M14 melanoma
  GI50: 333 nM
  TGI: 2340 nM
OVCAR-4 ovarian
  GI50: 5230 nM
  TGI: > 100000 nM
A498 renal
  GI50: 251 nM
  TGI: 730 nM
T-47D breast
  GI50: 4040 nM
  TGI: > 79300 nM
SF-539 CNS
  GI50: 292 nM
  TGI: 867 nM
A549 NSCLC
  GI50: 485 nM
  TGI: > 100000 nM
MDA-MB-435
  GI50: 250 nM
  TGI: 636 nM
K-562 leukemia
  GI50: 383 nM
  TGI: > 100000 nM
HOP-92 NSCLC
  GI50: 202 nM
  TGI: 1280 nM
UACC-257 melanoma
  GI50: 2180 nM
  TGI: 34500 nM
RXF 393 renal
  GI50: 312 nM
  TGI: 3360 nM
SW-620 colon
  GI50: 403 nM
  TGI: 18900 nM
CCRF-CEM leukemia
  GI50: 408 nM
  TGI: > 78800 nM
HCT-15 colon
  GI50: 371 nM
  TGI: 23100 nM
SNB-19 CNS
  GI50: 455 nM
  TGI: > 93400 nM
NCI-H460 lung
  GI50: 349 nM
  TGI: 11000 nM
HL-60(TB) leukemia
  GI50: 294 nM
  TGI: > 31900 nM
COLO 205 colon
  GI50: 230 nM
  TGI: 487 nM
U251 CNS
  GI50: 387 nM
  TGI: 6280 nM
NCI/ADR-RES ovarian
  GI50: 359 nM
  TGI: > 100000 nM
DU-145 prostate
  GI50: 471 nM
  TGI: > 100000 nM
MCF7 breast
  GI50: 385 nM
  TGI: > 100000 nM
SK-MEL-5 melanoma
  GI50: 545 nM
  TGI: 5270 nM
ACHN renal
  GI50: 692 nM
  TGI: > 48400 nM
786-0 renal
  GI50: 642 nM
  TGI: 13800 nM
HCC-2998 colon
  GI50: 377 nM
  TGI: 11600 nM
MOLT-4 leukemia
  GI50: 404 nM
  TGI: > 100000 nM
SK-MEL-28 melanoma
  GI50: 11800 nM
  TGI: 42200 nM
BT-549 breast
  GI50: 264 nM
  TGI: 653 nM
LOX IMVI melanoma
  GI50: 458 nM
  TGI: 12500 nM
SF-295 CNS
  GI50: 336 nM
  TGI: 99200 nM
HCT-116 colon
  GI50: 353 nM
  TGI: 5190 nM
MALME-3M melanoma
  GI50: 2680 nM
  TGI: 29000 nM
NCI-H522 lung
  GI50: 210 nM
  TGI: 575 nM
NCI-H23 lung
  GI50: 474 nM
  TGI: > 100000 nM
IGROV1 ovarian
  GI50: 601 nM
  TGI: 26300 nM
PC-3 prostate
  GI50: 435 nM
  TGI: 19600 nM
HS 578T breast
  GI50: 356 nM
  TGI: 25500 nM
CAKI-1 renal
  GI50: 562 nM
  TGI: 37800 nM
SN12C renal
  GI50: 617 nM
  TGI: 29000 nM
HOP-62 NSCLC
  GI50: 573 nM
  TGI: 24700 nM
OVCAR-8 ovarian
  GI50: 357 nM
  TGI: 2230 nM
KM12 colon
  GI50: 400 nM
  TGI: > 37100 nM
SK-OV-3 ovarian
  GI50: 510 nM
  TGI: > 44800 nM
TK-10 renal
  GI50: 11400 nM
  TGI: > 70900 nM
HT29 colon
  GI50: 332 nM
  TGI: 1490 nM
EKVX NSCLC
  GI50: 729 nM
  TGI: > 100000 nM

## N#Cc1c(-c2ccc(Cl)cc2)nc(SCc2ccc([N+](=O)[O-])cc2)nc1N1CCNCC1
OVCAR-5 ovarian
  GI50: 1560 nM
  TGI: 2980 nM
SK-MEL-2 melanoma
  GI50: 1610 nM
  TGI: 3050 nM
UACC-62 melanoma
  GI50: 1690 nM
  TGI: 3110 nM
UO-31 renal
  GI50: 1320 nM
  TGI: 2590 nM
A498 renal
  GI50: 1560 nM
  TGI: 2980 nM
UACC-257 melanoma
  GI50: 1620 nM
  TGI: 3060 nM
RXF 393 renal
  GI50: 1540 nM
  TGI: 2970 nM
DU-145 prostate
  GI50: 1730 nM
  TGI: 3110 nM
SK-MEL-5 melanoma
  GI50: 1680 nM
  TGI: 3060 nM
SK-MEL-28 melanoma
  GI50: 1640 nM
  TGI: 3020 nM
SF-295 CNS
  GI50: 1780 nM
  TGI: 3210 nM
CAKI-1 renal
  GI50: 1550 nM
  TGI: 2900 nM
SN12C renal
  GI50: 1770 nM
  TGI: 3260 nM
SK-OV-3 ovarian
  GI50: 1780 nM
  TGI: 3200 nM
TK-10 renal
  GI50: 1560 nM
  TGI: 2960 nM

— PubChem BioAssay (NCI)
